From ChEMBL document CHEMBL1201862, “PubChem BioAssay data set” (2004)
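Interpolation was linear, between the two tested concentrations surrounding the appropriate level; five concentrations were tested over 48 hours in 96-well plates. GI50 marks 50% less growth.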 Active and inactive are the calls of the source. No stated cut-off is given here; in the data, active = GI50 up to about 1.1 µM and inactive = higher.

Assays:
Assay in all cases: growth of human tumour cells (NCI), 48 h
HCT-116 = system: HCT-116
HT-29 = system: HT-29
PC-3 = system: PC-3
SF-295 = system: SF-295
CAKI-1 = system: CAKI-1
OVCAR-5 = system: OVCAR-5
M14 = system: M14
NCI-H23 = system: NCI-H23
SK-MEL-2 = system: SK-MEL-2
TK-10 = system: TK-10
SW-620 = system: SW-620
Malme-3M = system: Malme-3M
SF-539 = system: SF-539
CCRF-CEM = system: CCRF-CEM
786-0 = system: 786-0
MOLT-4 = system: MOLT-4
COLO 205 = system: COLO 205
LOX IMVI = system: LOX IMVI
DU-145 = system: DU-145

Row | SMILES | GI50 (HCT-116) | GI50 (HT-29) | GI50 (PC-3) | GI50 (SF-295) | GI50 (CAKI-1) | GI50 (OVCAR-5) | GI50 (M14) | GI50 (NCI-H23) | GI50 (SK-MEL-2) | GI50 (TK-10) | GI50 (SW-620) | GI50 (Malme-3M) | GI50 (SF-539) | GI50 (CCRF-CEM) | GI50 (786-0) | GI50 (MOLT-4) | GI50 (COLO 205) | GI50 (LOX IMVI) | GI50 (DU-145)
1 | [N-]=[N+]=NC1=C(C(=O)c2ccccc2)C(=O)c2cccc3cccc1c23 | 72.1 µM (inactive) | 51.2 µM (inactive) | 49.2 µM (inactive) | 42.3 µM (inactive) | 40.6 µM (inactive) | > 100 µM (inactive) | 49.9 µM (inactive) | 51.3 µM (inactive) | 21.8 µM (inactive) | 21.9 µM (inactive) | > 100 µM (inactive) | 46.7 µM (inactive) | 49.3 µM (inactive) | 21.4 µM (inactive) | 25.3 µM (inactive) | 23 µM (inactive) | > 100 µM (inactive) |  | 
2 | O=C(Nc1cccc([N+](=O)[O-])c1)/C(=N\NC(=O)c1ccncc1)c1nc2ccc([N+](=O)[O-])cc2nc1O | 84.3 µM (inactive) | 74.1 µM (inactive) |  | 33.8 µM (inactive) | 38.6 µM (inactive) | 77.3 µM (inactive) | > 100 µM (inactive) | 68.1 µM (inactive) | > 100 µM (inactive) |  | 77.3 µM (inactive) | > 100 µM (inactive) | 32.8 µM (inactive) | 14.7 µM (inactive) | > 100 µM (inactive) | 46.9 µM (inactive) | > 100 µM (inactive) | 27.6 µM (inactive) | 
3 | CC(NC(=O)C(CC(=O)OCc1ccccc1)NC(=O)OCc1ccccc1)c1ccccc1 (configuration not stated) |  | > 100 µM (inactive) | 35.3 µM (inactive) | 55.1 µM (inactive) | 83.4 µM (inactive) | > 100 µM (inactive) | 27.7 µM (inactive) | > 100 µM (inactive) | > 100 µM (inactive) | > 100 µM (inactive) | > 100 µM (inactive) | 73.3 µM (inactive) | 64.3 µM (inactive) |  | 49.2 µM (inactive) | > 100 µM (inactive) | > 100 µM (inactive) |  | > 100 µM (inactive)
4 | C1=N\c2ccc(cc2)/N=C\c2ccc(cc2)OCc2cccc(n2)COc2ccc/1cc2 | > 100 µM (inactive) | > 100 µM (inactive) | > 100 µM (inactive) | > 100 µM (inactive) | > 100 µM (inactive) | > 100 µM (inactive) | > 100 µM (inactive) | > 100 µM (inactive) | > 100 µM (inactive) |  | > 100 µM (inactive) | > 100 µM (inactive) | > 100 µM (inactive) | > 100 µM (inactive) | > 100 µM (inactive) | > 100 µM (inactive) | > 100 µM (inactive) |  | > 100 µM (inactive)
5 | CCOC(=O)/C1=C(\C)N(Cc2ccccc2)C(=O)c2ccccc2C(=O)c2c(OC(C)=O)ccc(OC(C)=O)c21 |  | 40.2 µM (inactive) |  | 29 µM (inactive) | 72.3 µM (inactive) | 41.7 µM (inactive) |  |  | 97.5 µM (inactive) | 58.3 µM (inactive) | 65.3 µM (inactive) | 69.8 µM (inactive) | > 100 µM (inactive) | 40.8 µM (inactive) | > 100 µM (inactive) | 59.7 µM (inactive) | 78.7 µM (inactive) | > 100 µM (inactive) | 
6 | O=C(Nc1ccccc1)c1cc(S(=O)(=O)Nc2n[nH]c(=O)[nH]2)c(SSc2cc(Cl)c(C(=O)Nc3ccccc3)cc2S(=O)(=O)Nc2n[nH]c(=O)[nH]2)cc1Cl | > 100 µM (inactive) | > 100 µM (inactive) | > 100 µM (inactive) | > 100 µM (inactive) | > 100 µM (inactive) | > 100 µM (inactive) | > 100 µM (inactive) | > 100 µM (inactive) | > 100 µM (inactive) | > 100 µM (inactive) | > 100 µM (inactive) | > 100 µM (inactive) |  | > 100 µM (inactive) | > 100 µM (inactive) | > 100 µM (inactive) | > 100 µM (inactive) | > 100 µM (inactive) | 
7 | CC(C)(C)c1cc(COc2cc(COc3ccc(-c4c5c(nc6c4CCc4ccc(-c7c8ccccc8nc8ccccc78)cc4-6)-c4cc(-c6c7ccccc7nc7ccccc67)ccc4CC5)cc3)cc(OCc3cc(C(C)(C)C)cc(C(C)(C)C)c3)c2)cc(C(C)(C)C)c1 | > 100 µM (inactive) |  | > 100 µM (inactive) | > 100 µM (inactive) | > 100 µM (inactive) | > 100 µM (inactive) | > 100 µM (inactive) | > 100 µM (inactive) | > 100 µM (inactive) | > 100 µM (inactive) |  | 89.3 µM (inactive) |  |  | > 100 µM (inactive) |  | > 100 µM (inactive) |  | > 100 µM (inactive)
8 | Cn1cnnc1Sc1c([N+](=O)[O-])ncn1C | > 100 µM (inactive) | > 100 µM (inactive) |  | > 100 µM (inactive) | > 100 µM (inactive) | > 100 µM (inactive) | > 100 µM (inactive) | 84.7 µM (inactive) | 50.6 µM (inactive) | > 100 µM (inactive) | 72.4 µM (inactive) | 16.4 µM (inactive) | > 100 µM (inactive) | 29.4 µM (inactive) | > 100 µM (inactive) | 31 µM (inactive) | 34.3 µM (inactive) | 35.2 µM (inactive) | 
9 | CCCCC/C=C1\CC(CO)(COC(=O)CC(C(C)C)C(C)C)OC1=O (configuration not stated) | 18.7 µM (inactive) | 19.9 µM (inactive) | 10.5 µM (inactive) | 5.52 µM (inactive) | 9.42 µM (inactive) | 12.7 µM (inactive) | 14.6 µM (inactive) | 17.5 µM (inactive) | 20.3 µM (inactive) | 14.2 µM (inactive) | 29.3 µM (inactive) | 15.3 µM (inactive) |  | 11.8 µM (inactive) | 12.1 µM (inactive) | 15.2 µM (inactive) | 3.04 µM (inactive) |  | 15.6 µM (inactive)
10 | CC1=C/C(=N\OCC(=O)O)CC(c2ccc(C(C)C)cc2)C1 (configuration not stated) | 45.6 µM (inactive) | 16.6 µM (inactive) | 38.5 µM (inactive) | 39.8 µM (inactive) | > 100 µM (inactive) | > 100 µM (inactive) | 35.2 µM (inactive) |  | 99.1 µM (inactive) |  | 34.3 µM (inactive) | 63.8 µM (inactive) | 93.1 µM (inactive) | 34.4 µM (inactive) | 65.8 µM (inactive) | 16.3 µM (inactive) | 76.7 µM (inactive) |  | > 100 µM (inactive)
11 | CN1CCN(C(=S)N(C(=O)c2cccs2)C2CCCCC2)CC1 |  | > 100 µM (inactive) |  | > 10 µM (inactive) |  | > 100 µM (inactive) | > 100 µM (inactive) | > 100 µM (inactive) | > 100 µM (inactive) | > 100 µM (inactive) | > 100 µM (inactive) | > 100 µM (inactive) |  | > 10 µM (inactive) | > 100 µM (inactive) | > 10 µM (inactive) | > 100 µM (inactive) | > 100 µM (inactive) | > 100 µM (inactive)
12 | C[C@H]1OC(=O)[C@@H]2N=NN(Cc3ccccc3)[C@H]12 | > 100 µM (inactive) | > 100 µM (inactive) | > 100 µM (inactive) | > 100 µM (inactive) | > 100 µM (inactive) | > 100 µM (inactive) | > 100 µM (inactive) | > 100 µM (inactive) | > 100 µM (inactive) | > 100 µM (inactive) | > 100 µM (inactive) | > 100 µM (inactive) | > 100 µM (inactive) |  | > 100 µM (inactive) | > 100 µM (inactive) | > 100 µM (inactive) |  | > 100 µM (inactive)
13 | NNc1nc2ccccc2c(=O)n1NC(=O)C(=O)Nc1cccc(C(F)(F)F)c1 | > 100 µM (inactive) | > 100 µM (inactive) | > 100 µM (inactive) | > 100 µM (inactive) | > 100 µM (inactive) | > 100 µM (inactive) | > 100 µM (inactive) | > 100 µM (inactive) | > 100 µM (inactive) | > 100 µM (inactive) | > 100 µM (inactive) | > 100 µM (inactive) | > 100 µM (inactive) | > 100 µM (inactive) | > 100 µM (inactive) | > 100 µM (inactive) |  | > 100 µM (inactive) | 
14 | COP(=O)(Cc1ccc(/C=C/C#N)o1)OC | > 100 µM (inactive) | > 100 µM (inactive) |  |  |  |  | > 100 µM (inactive) | > 100 µM (inactive) |  | > 100 µM (inactive) | > 10 µM (inactive) | 47.2 µM (inactive) | > 100 µM (inactive) | > 100 µM (inactive) | > 100 µM (inactive) | > 100 µM (inactive) | > 100 µM (inactive) |  | > 100 µM (inactive)
15 | Cc1cc2nc3c(N)nn(CCCN(C)C)c3nc2cc1C | 50.5 µM (inactive) | 38.3 µM (inactive) | > 100 µM (inactive) | > 100 µM (inactive) | > 100 µM (inactive) | > 100 µM (inactive) | 30.1 µM (inactive) | > 100 µM (inactive) |  | 71.6 µM (inactive) | 56.9 µM (inactive) |  | > 100 µM (inactive) |  | 68.9 µM (inactive) |  | 55 µM (inactive) |  | > 100 µM (inactive)
16 | CN1CCc2ccccc2C1Cc1ccccc1NC(=O)c1sc2ccccc2c1Cl (configuration not stated) | > 100 µM (inactive) |  | > 100 µM (inactive) | > 100 µM (inactive) | > 100 µM (inactive) |  | > 100 µM (inactive) | > 100 µM (inactive) | > 100 µM (inactive) | > 100 µM (inactive) | > 100 µM (inactive) | > 100 µM (inactive) | > 100 µM (inactive) | 50.9 µM (inactive) | > 100 µM (inactive) | > 100 µM (inactive) | > 100 µM (inactive) |  | > 100 µM (inactive)
17 | O=C1c2c(O)cccc2Cc2cc(CO)cc(O)c21 | 2.31 µM (inactive) | 3.48 µM (inactive) | 1.08 µM (active) | 1.52 µM (inactive) |  | 4.02 µM (inactive) | 2.31 µM (inactive) | 1.85 µM (inactive) |  | 4.08 µM (inactive) | 4.06 µM (inactive) | 2.21 µM (inactive) |  | 3.28 µM (inactive) | 3.21 µM (inactive) | 2.96 µM (inactive) | 1.87 µM (inactive) |  | 3.86 µM (inactive)
